What was measured:
[1] = target: T1, TliA (thermostable lipase), displayed as INPNC-TliA (Pseudomonas fluorescens, UniProt Q9ZG91); test: whole-cell chiral resolution, HPLC; type: cell-based; conditions: INPNC-TliA displayed on P. putida GM730/pJHC13 cells; 50 mM racemic substrate; two-phase PBS-isooctane; 25 °C; 72 h; R-selective
T1 sequence (Q9ZG91 1-476): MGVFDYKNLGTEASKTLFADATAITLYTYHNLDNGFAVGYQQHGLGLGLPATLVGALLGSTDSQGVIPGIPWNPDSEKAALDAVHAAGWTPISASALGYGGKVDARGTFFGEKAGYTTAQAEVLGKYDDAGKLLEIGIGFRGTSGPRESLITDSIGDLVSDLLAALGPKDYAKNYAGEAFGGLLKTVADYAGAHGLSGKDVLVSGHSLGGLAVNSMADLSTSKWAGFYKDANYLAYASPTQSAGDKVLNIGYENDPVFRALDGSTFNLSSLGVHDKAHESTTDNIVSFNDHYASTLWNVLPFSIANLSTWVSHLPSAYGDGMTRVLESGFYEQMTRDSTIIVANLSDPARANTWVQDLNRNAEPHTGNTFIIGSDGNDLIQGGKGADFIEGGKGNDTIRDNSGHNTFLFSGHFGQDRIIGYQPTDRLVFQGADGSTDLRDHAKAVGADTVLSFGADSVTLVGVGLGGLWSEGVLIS

[2] = target: T1, TliA (thermostable lipase), displayed as INPNC-TliA; test: whole-cell lipase activity, spectrophotometric; type: cell-based; conditions: INPNC-TliA displayed on P. putida GM730/pJHC13 cells; PBS-washed; induced with 1 mM IPTG

| Structure (SMILES) | whole-cell chiral resolution, HPLC [1] | whole-cell lipase activity, spectrophotometric [2] |
| --- | --- | --- |
| CC(C(=O)Oc1ccc([N+](=O)[O-])cc1)c1ccccc1 (racemic) [4-nitrophenyl 2-phenylpropionate] | enantiomeric excesses of the surviving p-nitrophenyl 2-phenylpropionate and the product (R) 2-phenylpropionic acid |  |
| CCCCCCCCCCCCCCCC(=O)Oc1ccc([N+](=O)[O-])cc1 [p-nitrophenyl palmitate] |  | whole-cell enzyme activities were measured with p-nitrophenyl palmitate (pNPP), which does not enter the cells |

From paper PMC1459859, “Display of a thermostable lipase on the surface of a solvent-resistant bacterium, Pseudomonas putida GM730, and its applications in whole-cell biocatalysis” (BMC Biotechnology, 2006)
